Measurements taken from patent publication US8436004B2, “Bicycloaniline derivative” (MSD K.K., priority 2007, dated 2013).
Structures can show the parent of a compound that is named as a salt.

Test system: Human colon cancer cells (WiDr)
Experiment: Checkpoint-escape effect in gemcitabine-treated WiDr cells (phosphorylated histone H3-positive cells)
Format: cell-based
Settings: gemcitabine 100 nM 24 hours, then test compound + nocodazole 8 hours
Text: Pharmacological Test 3 (Method of Determining Drug Potency with Cells (Checkpoint-Escape Effect))
Fetal bovine serum (FBS) was obtained from Morgate; a medium of DMEM was from Invitrogen; gemcitabine was from Nippon Eli Lilly; nocodazole and 4′,6-diamidino-2-phenylindole were from Sigma; rabbit anti-phosphorylated histone H3 antibody was from Upstate; and fluorescence-labeled (Alexa Fluor 488) anti-rabbit IgG antibody was from Molecular Probe.
Human colon cancer cells (WiDr) were obtained from American Type Culture Collection (ATCC).
The cells were suspended in a medium of 10% FBS-added DMEM, and the cell suspension was applied to a poly-D-lysine-coated 96-well plastic plate (bought from Becton Dickinson) in an amount of 2000 cells/100 μL/well, in which the cells were incubated overnight in 5% CO2-95% air at 37° C. […] Next, this was washed with PBS, and a solution containing 4′,6-diamidino-2-phenylindole that had been diluted with 1% BSA/PBS to have a concentration 10 μg/mL and a fluorescence-labeled (Alexa Fluor 488) anti-rabbit IgG antibody that had been diluted 250-fold was added to it in an amount 50 μL/well, and reacted in a dark place at room temperature for 60 minutes. […]

Compound `CN1Cc2cc(Nc3ncc4c(=N)n(-c5c(Cl)cccc5Cl)c(=O)[nH]c4n3)ccc2C2(CC2)C1` [Example 1, 3-(2,6-dichlorophenyl)-4-imino-7-[(2′-methyl-2′,3′-dihydro-1′H-spiro[cyclopropane-1,4′-isoquinolin]-7′-yl)amino]-3,4-dihydropyrimido[4,5-d]pyrimidin-2(1H)-one dihydrochloride] has an EC50 of 37 nM.
